# US9040500B2, “Method for treating hematopoietic neoplasms” (priority 2007, dated 2015)
# Columns and labels:
# [1] = system: subcutaneous HL60 tumors; assay: Subcutaneous in vivo leukemia model (Example 1); set-up: species or system athymic nu/nu mice; details: for tumor volume / tumor growth versus control (PBS): CA1dP or CA4P 75 mg/kg/inj, Ara-C 20 mg/kg/inj, HL60 s.c. in nu/nu mice
# Protocol: HL60 (1×10^7 cells in 0.1 ml) were injected subcutaneously into the dorsa of 4-6 week old athymic nu/nu mice (Southern Research Institute). When palpable tumors were evident (average tumor volume 100 mm^3; i.e. approximately 12 days after inoculation), 6 experimental groups of mice were randomized, each with 10 animals. Treatment was initiated according to the following regimens:
# Tumor volume was measured three times a week until the endpoint was reached (tumor volume >3000 mm^3), or for 90 days post-treatment.
# [2] = system: intracellular reactive oxygen species (ROS); assay: Intracellular reactive oxygen species in leukemic cells; type: cell-based
# [3] = system: leukemic cells; assay: Leukemic cell proliferation and cell death in vitro; type: cell-based; details: low and non-toxic doses
# [4] = system: subcutaneous HL60 tumors; assay: Dose response activity in subcutaneous HL60 model (Example 2); type: in vivo, athymic nu/nu mice
# Protocol: HL60 (1×10^7 cells in 0.1 ml) were injected subcutaneously into the dorsa of 4-6 week old athymic nu/nu mice (Southern Research Institute). When palpable tumors were evident (average tumor volume 100 mm^3; i.e. approximately 12 days after inoculation), ten experimental groups of mice were randomized, each with 10 animals. Treatment was initiated according to the following regimens:
# Tumor volume was measured three times per week.
# [5] = system: subcutaneous solid tumors; details: concentrations well below the maximum tolerated dose; cited from earlier work
# [6] = system: tubulin; details: cited from earlier work
# [7] = CA1dP combined with araC 20 mg/kg/inj
# [8] = CA1dP 75 mg/kg/inj with addition of Ara-C 20 mg/kg/inj
# [9] = subcutaneous mouse models of AML, single agent (introduction summary)
compound,measurement,setting,value
"Nc1ccn([C@@H]2O[C@H](CO)[C@@H](O)[C@@H]2O)c(=O)n1 [Ara-C, cytosine arabinoside, reference compound]",tumor volume / tumor growth versus control (PBS),[1]; single agent,little improvement
"COc1cc(/C=C\c2ccc(OC)c(OP(=O)(O)O)c2OP(=O)(O)O)cc(OC)c1OC [CA1dP, combretastatin A-1 diphosphate]",intracellular reactive oxygen species (ROS),[2],rapidly increases intracellular reactive oxygen species
same,leukemic cell proliferation in vitro,[3],inhibit leukemic cell proliferation in vitro
same,mitotic arrest and cell death of leukemic cells,[3],induce mitotic arrest and cell death
same,decrease in tumor volume relative to dose,"[4]; CA1dP 2.5, 10, 25, 75 mg/kg/inj, day 3 and 10",clear dose response relationship
same,"duration of tumor growth inhibition, combination versus CA1dP alone",[4]; [7],longer growth inhibition
same,"number of complete responses, combination versus CA1dP alone",[4]; [7],not significantly altered
same,anti-tumor activity,[4]; doses of CA1dP above 2.5 mg/kg,significant anti-tumor activity
same,complete regressions out of ten treated mice,[1]; [8],six
same,tumor volume versus CA1dP alone,[1]; [8],further decreased tumor volumes
same,tumor load with co-administered chemotherapeutic agent,[1]; co-administration of AraC (introduction summary),decreases tumor load even further
same,complete tumor regressions in a population of ten treated mice,"[1]; single agent, 75 mg/kg/inj Q7D x 2",five
same,tumor volume / tumor growth versus control (PBS),[1]; single agent,substantial decreases in tumor volume
same,survival of treated mice,[1]; [9],significantly prolonged survival
same,tumor load of treated mice,[1]; [9],significantly decreased tumor load
same,microtubule depolymerization and vascular shutdown causing tumor necrosis,[5],induces rapid microtubule depolymerization and vascular shutdown
"COc1ccc(/C=C\c2cc(OC)c(OC)c(OC)c2)cc1OP(=O)(O)O [CA4P, combretastatin A-4 phosphate, reference compound]",life span versus controls,"[1]; single agent, 75 mg/kg/inj",extended life span
same,tumor volume / tumor growth versus control (PBS),[1]; single agent,delayed tumor growth
COc1ccc(/C=C\c2cc(OC)c(OC)c(OC)c2)c(O)c1O [Combretastatin A-1],"affinity for tubulin at the colchicine site, relative to colchicine",[6],higher affinity
